Compound in the assay: CC1=C(C=CC(=C1)[N+](=O)[O-])NS(=O)(=O)C2=C(C=CC(=C2)Cl)Cl [FH535] + Cc1nc(NC(=O)N2CCC[C@H]2C(N)=O)sc1-c1ccnc(C(C)(C)C(F)(F)F)c1 [Alpelisib] (partner 2 µM)
The experiment in a line: relative viability (nuclei count vs DMSO), 5 days (fraction); higher = more cells survive. In outline:
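After 5 days of treatment, lung cancer cells in 1536-well plates were fixed and stained in a single step (final 0.05% Triton X-100, 1% formaldehyde, 1 ug/ml Hoechst) and their nuclei counted on 4× images. Treatment had been applied by pin tool the day after seeding as one drug alone or as a fixed anchor-drug dose with five library-drug doses (not always all listed) in √10 steps. Relative viability is the nuclei count of treated wells divided by that of vehicle wells, and values are medians of duplicate plates.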

From the supplement of paper PMC10307832 come the findings set out here.

Take EKVX: the relative viability was determined as 0.825 (first compound 0.04 µM), 0.976 (first compound 0.1265 µM), 0.823 (first compound 0.4 µM) and 0.75 (first compound 1.265 µM).

HARA: the relative viability (first compound 0.04 µM) is 0.785, the relative viability (first compound 0.1265 µM) was found to be 0.817, the relative viability (first compound 0.4 µM) came out at 0.817 and the relative viability (first compound 1.265 µM) worked out at 0.561.

As for EMC-BAC-2, the relative viability (first compound 0.04 µM) amounted to 0.731, the relative viability (first compound 0.1265 µM) was 0.762, the relative viability (first compound 0.4 µM) was 0.716 and the relative viability (first compound 1.265 µM) was found to be 0.632.

For PC-3 [JPC-3], the relative viability is, setting by setting: (first compound 0.04 µM) 1; (first compound 0.1265 µM) 1.07; (first compound 0.4 µM) 0.951; (first compound 1.265 µM) 0.686.

For the cell line NCI-H596, the relative viability is, setting by setting: (first compound 0.04 µM) 0.527; (first compound 0.1265 µM) 0.487; (first compound 0.4 µM) 0.481; (first compound 1.265 µM) 0.487.

In the case of NCI-H1755, the relative viability (first compound 0.04 µM) was found to be 0.941, the relative viability (first compound 0.1265 µM) was determined as 0.897, the relative viability (first compound 0.4 µM) turned out to be 0.853 and the relative viability (first compound 1.265 µM) is 0.867.

For NCI-H2087, the relative viability by setting is: (first compound 0.04 µM) 1.11; (first compound 0.1265 µM) 1.04; (first compound 0.4 µM) 0.887; (first compound 1.265 µM) 0.613.

On to NCI-H2023, for which the relative viability (first compound 0.04 µM) worked out at 0.659, the relative viability (first compound 0.1265 µM) is 0.629, the relative viability (first compound 0.4 µM) was 0.686 and the relative viability (first compound 1.265 µM) came to 0.604.

Regarding CAL-12T, the relative viability by setting is: (first compound 0.04 µM) 1.21; (first compound 0.1265 µM) 1.16; (first compound 0.4 µM) 1.06; (first compound 1.265 µM) 1.01.

Turning to NCI-H2085, the relative viability runs as follows: (first compound 0.04 µM) 0.959; (first compound 0.1265 µM) 0.977; (first compound 0.4 µM) 0.941; (first compound 1.265 µM) 0.675.

With NCI-H661, the relative viability came to 0.607 (first compound 0.04 µM), 0.55 (first compound 0.1265 µM), 0.518 (first compound 0.4 µM) and 0.374 (first compound 1.265 µM).

With LCLC-97TM1, the relative viability came out at 0.225 (first compound 0.1265 µM), 0.224 (first compound 0.4 µM) and 0.181 (first compound 1.265 µM).

Regarding NCI-H2126, the relative viability came to 0.744 (first compound 0.04 µM), 0.744 (first compound 0.1265 µM), 0.718 (first compound 0.4 µM) and 0.626 (first compound 1.265 µM).

On to 201T, for which the relative viability reads like this: (first compound 0.04 µM) 1.02; (first compound 0.1265 µM) 1.01; (first compound 0.4 µM) 1.02; (first compound 1.265 µM) 1.

For NCI-H1915, the relative viability was determined as 1 (first compound 0.04 µM), 1.07 (first compound 0.1265 µM), 1.05 (first compound 0.4 µM) and 0.738 (first compound 1.265 µM).

Regarding BEN, the relative viability (first compound 0.04 µM) turned out to be 0.929, the relative viability (first compound 0.1265 µM) was found to be 0.998, the relative viability (first compound 0.4 µM) was 0.868 and the relative viability (first compound 1.265 µM) is 0.748.

As to NCI-H2405, the relative viability was found to be 0.685 (first compound 0.04 µM), 0.843 (first compound 0.1265 µM), 0.84 (first compound 0.4 µM) and 0.585 (first compound 1.265 µM).

With H3255, the relative viability (first compound 0.04 µM) was determined as 0.468, the relative viability (first compound 0.1265 µM) worked out at 0.805, the relative viability (first compound 0.4 µM) came out at 0.705 and the relative viability (first compound 1.265 µM) amounted to 0.633.

Take NCI-H460: the relative viability reads like this: (first compound 0.04 µM) 0.388; (first compound 0.1265 µM) 0.601; (first compound 0.4 µM) 0.51; (first compound 1.265 µM) 0.449.

On to NCI-H2228, for which the relative viability runs as follows: (first compound 0.04 µM) 0.687; (first compound 0.1265 µM) 0.669; (first compound 0.4 µM) 0.911; (first compound 1.265 µM) 0.63.

As for NCI-H1975, the relative viability (first compound 0.04 µM) came to 0.614, the relative viability (first compound 0.1265 µM) was 0.682, the relative viability (first compound 0.4 µM) came to 0.607 and the relative viability (first compound 1.265 µM) is 0.487.

Take NCI-H650: the relative viability (first compound 0.04 µM) worked out at 0.975, the relative viability (first compound 0.1265 µM) was found to be 1.06, the relative viability (first compound 0.4 µM) turned out to be 1.12 and the relative viability (first compound 1.265 µM) is 0.774.

A-427: the relative viability is, setting by setting: (first compound 0.04 µM) 1.08; (first compound 0.1265 µM) 1.04; (first compound 0.4 µM) 1.02; (first compound 1.265 µM) 1.04.

For LXF-289, the relative viability by setting is: (first compound 0.04 µM) 0.958; (first compound 0.1265 µM) 0.98; (first compound 0.4 µM) 0.91; (first compound 1.265 µM) 0.794.

Regarding NCI-H838, the relative viability reads like this: (first compound 0.04 µM) 0.917; (first compound 0.1265 µM) 1.06; (first compound 0.4 µM) 0.962; (first compound 1.265 µM) 0.765.

As for NCI-H1437, the relative viability was 0.982 (first compound 0.04 µM), 0.968 (first compound 0.1265 µM), 0.897 (first compound 0.4 µM) and 0.468 (first compound 1.265 µM).

For the cell line SK-LU-1, the relative viability (first compound 0.04 µM) was 0.913, the relative viability (first compound 0.1265 µM) came out at 1.1, the relative viability (first compound 0.4 µM) came out at 0.949 and the relative viability (first compound 1.265 µM) amounted to 0.616.

As to NCI-H1792, the relative viability by setting is: (first compound 0.04 µM) 0.64; (first compound 0.1265 µM) 0.73; (first compound 0.4 µM) 0.664; (first compound 1.265 µM) 0.53.

With HCC-44, the relative viability amounted to 0.779 (first compound 0.04 µM), 0.843 (first compound 0.1265 µM), 0.741 (first compound 0.4 µM) and 0.566 (first compound 1.265 µM).

Take EPLC-272H: the relative viability is, setting by setting: (first compound 0.04 µM) 0.951; (first compound 0.1265 µM) 0.978; (first compound 0.4 µM) 1.02; (first compound 1.265 µM) 0.963.

Consider IA-LM, for which the relative viability stood at 0.827 (first compound 0.04 µM), 0.691 (first compound 0.1265 µM), 0.642 (first compound 0.4 µM) and 0.688 (first compound 1.265 µM).

Regarding SK-MES-1, the relative viability runs as follows: (first compound 0.04 µM) 0.865; (first compound 0.1265 µM) 0.941; (first compound 0.4 µM) 0.855; (first compound 1.265 µM) 0.881.

As to NCI-H647, the relative viability by setting is: (first compound 0.04 µM) 1.18; (first compound 0.1265 µM) 1.41; (first compound 0.4 µM) 1.14; (first compound 1.265 µM) 0.935.

Take NCI-H441: the relative viability reads like this: (first compound 0.04 µM) 0.529; (first compound 0.1265 µM) 0.638; (first compound 0.4 µM) 0.686; (first compound 1.265 µM) 0.605.

NCI-H1563: the relative viability runs as follows: (first compound 0.04 µM) 0.89; (first compound 0.1265 µM) 0.931; (first compound 0.4 µM) 0.981; (first compound 1.265 µM) 0.837.
